Drawing on a melting point compilation (Tetko et al.; mined from patent text by program, amines drawn as free bases though some values may be those of a salt), this text covers melting point for 90 compounds.

Each structure is given as a SMILES string.

The melting point is the temperature, or range, at which the solid turns liquid.

As to `CC(CC(=O)O)C(=O)c1ccc(-n2ccc(=O)cc2)cc1` (stereo not given), the melting point was 250 to 252 °C. Turning to `CCCCOCc1cnc2nc(N)[nH]c(=O)c2n1`, the melting point was over 300 °C. For the compound `Oc1ccnc2ccc3nc[nH]c3c12`, the melting point was 366 to 368 °C.

As to `C#Cc1ccc(C(O)(Cn2cncn2)C(C)(C)C)cc1` (stereo not given), the melting point was 101 °C. The value for `CCC(C)COC(=O)Cn1cccc1-c1nc(-c2ccc(OC)cc2)c(-c2ccc(OC)cc2)s1` (stereo not given) was 81.5 to 84.5 °C; that for `O=C(O[C@H]1OCCN(Cc2ccccc2)[C@H]1c1ccc(F)cc1)c1cc(C(F)(F)F)cc(C(F)(F)F)c1` was 102 to 103 °C; that for `CC(C)(C)Nc1cc(N2CCNCC2)nc(NC(C)(C)C)n1` was 142 to 145 °C. Consider `CCOC(=O)C(C)Oc1ccc(Sc2nnc3cc(Cl)ccc3n2)cc1` (stereo not given), for which the melting point fell in the range of 86 to 88 °C. As to `COc1cc(-n2nnn(C)c2=O)c(Cl)cc1Cl`, the melting point lay in the range of 80 to 81 °C. With `OC(CCc1cccc(Br)c1)c1cnc2sc3c(n12)CCCCC3` (stereo not given), the melting point lay within 137 to 141 °C. Under `Cc1ccc(NCC2CCN(C(C)C3CC3)CC2)c(C(=O)Nc2ccc(Cl)cn2)c1` (stereo not given) stands 79 to 81 °C; under `CCOCc1nc2c(N)nc3ccccc3c2n1NCCC(C)C`, 129 to 132 °C; under `O=C1C(=O)N(Cc2ccc(Br)cc2F)c2c(Cl)cccc21`, 164 to 166 °C. On to `COC[C@H](C)N1CCc2sc(Nc3ncc(F)cn3)nc2-c2c[nH]nc21`, for which the melting point was 249 to 251 °C. For `COC(=O)c1cc(OC)c(OCc2ccccc2)c(OC)c1`, the melting point was in the range of 62 to 65 °C. The value for `CCOC(=O)C1=C(COCC(C)O)NC(C)=C(C(=O)OC)C1c1cccc(Cl)c1Cl` (stereo not given) was 110 to 113 °C. Consider `O=c1cc(N2CCCC(CO)C2)oc2c1ccc1ccccc12` (stereo not given), for which the melting point was 209 to 210 °C. In the case of `CCCCNc1nc(-c2ccc(=O)n(C)n2)c(-c2ccccc2)nc1N`, the melting point was in the range of 253 to 255 °C. As for `NC(=O)c1ncn2c1[C@@H]1CCCN1C(=O)c1sccc1-2`, the melting point lay within 222 to 223 °C. For the compound `CCCCOc1ccc(-c2ccc3c(c2)C=C(C(=O)OC)CCS3(=O)=O)cc1`, the melting point lay within 123 to 125 °C. The compound `CCC(=O)NCc1ccc2ccn(C3CCN(CCc4ccccc4F)CC3)c2c1` came in with a melting point of 118 to 119 °C. Regarding `O=[N+]([O-])c1ccc(CCCNCCO)cc1`, the melting point was in the range of 82.5 to 84.5 °C. In turn, `CCOC(=O)NNC=Nc1nc(-c2ccc3c(c2)CCCC3)cs1` came in with a melting point of 134 to 135 °C.

For `COC(=O)CCCc1cc2nc(Cl)ccc2n1S(=O)(=O)c1ccc(I)cc1`, the melting point lay within 117 to 118 °C. `COC(=O)NC1(c2ccc(C(C)C)cc2OC)C(=O)c2ccccc2C1=O`: the melting point lay in the range of 153 to 155 °C. As for `Cc1oc(-c2ccccc2)nc1COc1ccc2c(-c3ccccc3)c(CO)oc2c1`, the melting point was in the range of 152 to 153 °C. The compound `CC(O)=C(C#N)C(=O)N1CCN(c2ccc(NC(=O)c3cnn(-c4ccc(F)cc4)c3C)cc2C#N)CC1` showed a melting point of 210 °C. Take `C[C@@H](COS(C)(=O)=O)NS(=O)(=O)c1ccccc1[N+](=O)[O-]`: the melting point was in the range of 125 to 126 °C. With `CCOC(=O)c1cnc2nn(C)cc2c1O`, the melting point was 222 to 224 °C.

`COc1cc(-c2nc3ccc(OCCCN4CCCCC4)cc3n2Cc2ccccc2)cc(OC)c1OC` displayed a melting point of 92 °C.

Compound `CC(=O)c1c(N2CCCC2)nn2ccccc12` yielded a melting point of 59.5 to 60 °C. The value for `CCN1CCCC(NC(=O)N2CCN(c3ccccc3)CC2)C1` (stereo not given) was 100 to 103 °C; that for `CSc1nc(C)c(CCCl)c(=O)n1C` was 135 to 137 °C; that for `O=C1OCCN1c1cccc(CCBr)c1` was 73 to 75 °C.

For the compound `OCCOc1ccc(C(=S)c2ccc(-c3ccccc3)cc2)c(O)c1`, the melting point fell in the range of 77 to 79 °C. The value for `Cn1c(=O)cc(-c2nc(-c3ccccc3)cs2)c2cc(C(c3ccc(Cl)cc3)c3cnc(-c4ccccc4)[nH]3)ccc21` (stereo not given) was 190 °C. Consider `CCCNCC1Cc2ccc(C3=NNC(=O)CC3)cc2C1` (stereo not given), for which the melting point lay within 82 to 84 °C.

Turning to `C=CCc1cc(OC)c(OC)cc1CC(C#N)=COC`, the melting point was in the range of 77 to 79 °C.

Compound `Cc1ccc(N=C=O)c(S(=O)(=O)Cl)c1` displayed a melting point of 36 to 38.5 °C.

`O=C(O)CCc1ccc(C(=O)CCl)cc1` showed a melting point of 151 to 153 °C. `CC(=O)OCC1OC(n2cc(C)c(=O)[nH]c2=O)CC1F` (stereo not given) yielded a melting point of 97 to 98 °C. As to `Nc1nc(Cl)cc(NCCO)n1`, the melting point is 143 to 146 °C. As for `CC(C)(C)C(=O)Oc1cc([N+](=O)[O-])cc([N+](=O)[O-])c1O`, the melting point was 132 to 135 °C. The compound `CCOC(=O)CCc1cccc(NC(=O)c2cc(-c3ccc(C(F)(F)F)cc3)oc2C)c1` had a melting point of 134 to 135 °C. In turn, `CCCCc1nc(=O)c2cc(C(O)c3ccco3)ccc2[nH]1` (stereo not given) had a melting point of 183 to 185 °C.

In turn, `CCCC(C)(O)C(=O)Nc1ccnc(Br)c1` (stereo not given) showed a melting point of 102 °C. Under `O=C1CN(c2nccc(Oc3ccc(NC(=O)c4cc(F)cc(N5CCCCC5)c4)c4ccccc34)n2)CCN1` stands 140 to 142 °C; under `O=C(Cc1cccs1)NCCCSc1ccncc1`, 62 to 63 °C; under `COc1ccc(C2=NN(C(=O)c3cccnc3)CC2)cc1`, 132 to 134 °C. Compound `CC(=CC(=O)c1ccc(C(=O)N2Cc3cccn3Cc3ccccc32)cc1)N(C)C` registered a melting point of 183 to 185 °C. Under `C#CCOc1cc(-n2nc3ccc(Cl)cn3c2=O)c(F)cc1C#N` stands 209 to 211 °C; under `CCCCc1oc2ccc(N)cc2c1C(=O)c1ccc(OCCCO)cc1`, 86 to 90 °C. `CC(C)Nc1ncnc2cscc12` had a melting point of 230 °C.

For `COC(=O)c1cnc(N2CCN(c3nc4ccc(C(F)(F)F)cc4[nH]3)CC2)c(Cl)c1`, the melting point is 153 to 159 °C. Under `Cn1cc(-c2cc3cccnc3[nH]2)c2cc(OC3(C(=O)O)CCC3)ccc21` stands 168 to 169 °C. Consider `CC(=O)Nc1cc2c(s1)C(c1ccccc1)CN(C)CC2` (stereo not given), for which the melting point worked out at 180 °C. The value for `NC(=O)CCc1ccc(CNC(=O)[C@@H](CCCNC(N)=N[N+](=O)[O-])NC(=O)C(c2ccccc2)c2ccccc2)cc1` was 139 to 140 °C. As to `c1ccc2nc(CN(CCN(Cc3ccc4ccccc4n3)Cc3ccc4ccccc4n3)Cc3ccc4ccccc4n3)ccc2c1`, the melting point was in the range of 196 to 198 °C.

`CN(C)Cc1cccc(Oc2ccc3c(c2)S(=O)(=O)NC2CCCN32)c1` (stereo not given) returned a melting point of 122 °C. As to `CCOCc1cc(OC)c(-c2ccc(C[C@H](NC(=O)c3c(F)cccc3F)C(=O)O)cc2)c(OC)c1`, the melting point was in the range of 154 to 155 °C. In turn, `CCCCCCCCCCCCCCOc1ccc(N(CC(=O)O)CC(=O)O)cc1OCCCCCCCCCCCCCC` gave a melting point of 89 to 93 °C. As for `O=C1c2c(c(=O)n3nc(-c4ccccc4)cc3n2Cc2ccccc2)CN1Cc1ccccc1`, the melting point fell in the range of 232 to 234 °C. In turn, `O=C1Nc2cccc(-c3ccccc3)c2/C1=C/c1ccc[nH]1` showed a melting point of 184 to 185 °C. `CCCn1cc2c(C3C(=O)Nc4ccc(Br)cc43)nc(NCCc3cccnc3)nc2n1` (stereo not given) yielded a melting point of 294 to 297 °C. In turn, `O=C(O)CCCCCOc1cc(-c2ccc(NC(=O)C(F)(F)F)cc2)cc(-c2ccccc2)n1` registered a melting point of 178 to 180 °C.

`Cn1nnnc1-c1cn(C)c2ccc(F)cc2c1=O`: the melting point lay in the range of 260 to 261 °C. The value for `CC(C)C(=O)N[C@H](CSSC[C@@H](NC(=O)C(C)C)C(=O)O)C(=O)O` was 135 to 137 °C.

The compound `OCCN1CCCNC1=S` returned a melting point of 112 to 114 °C. `CC(=O)Nc1nc(CCc2ccc(CCN3CCN(C(=O)OC(C)(C)C)CC3)cc2)cs1` registered a melting point of 178 to 179 °C. For the compound `COC(=Cc1ccc(-c2cccc(N(C)C(=O)NC3CCCCC3)c2)cc1)C(=O)O`, the melting point is 192 °C. For the compound `COc1cc(C)c(C)cc1NC(=O)N1CCN(c2ccccc2)CC1`, the melting point was in the range of 143 to 144 °C. Under `CCc1cc(OCc2ccc3oc(-c4ccccc4C(=O)OC)nc3c2)c2c(n1)CCCC2` stands 131 to 132 °C. Regarding `COC(=O)c1ccc(CN2C(=O)C3(COc4cc5c(cc43)OCCO5)c3ccccc32)cc1` (stereo not given), the melting point lay in the range of 167 to 169 °C. `CCOc1nsc(S(C)(=O)=O)c1S(C)(=O)=O` registered a melting point of 158 to 160 °C. The compound `COc1cccc2[nH]c3c(c12)C(=O)N=NC3=O` came in with a melting point of over 260 °C. On to `CN(C)CC(O)C(c1ccccc1)c1ccc(F)cc1` (stereo not given), for which the melting point lay in the range of 55 to 57 °C. Consider `COC1=NS(=O)(=O)N=C1OC`, for which the melting point is 200 to 202 °C.

As for `Cc1cc(C)c(CC(=O)N(C)CC(=O)O)c(C)c1`, the melting point came out at 140 °C. In turn, `CCCCCCCCCCCCCCCCCNC(=O)O[C@@H]1CCO[C@H]1COCc1ccccc1` (relative stereo) showed a melting point of 54 to 56 °C. In the case of `O=C(O)c1cc2cc(O)c(O)cc2nc1C(=O)O`, the melting point is over 300 °C.

As to `C[Si](C)(C)C#Cc1cc(F)cnc1N`, the melting point came to 65 °C.

`COc1ccc(C2=NN(c3ccc(CC(=O)O)cc3)C(=O)C(C)(C)C2)cc1OC` registered a melting point of 186 to 188 °C. As to `COc1ccc(CSc2nnc(CCl)s2)cc1`, the melting point was in the range of 60.5 to 63.5 °C. `CCCCCCCS(=O)(=O)c1nn2c(=O)c(OC)cnc2s1`: the melting point lay within 106 to 109 °C. For `COc1cccc2c1OC(C(=O)Nc1ccncc1)C2CC(=O)OCc1ccccc1` (stereo not given), the melting point fell in the range of 165 to 166 °C. As for `O=C(CN1CCN(c2ccccc2)CC1)N1CCC(C(=O)N2CCC2)(c2cccc(C(F)(F)F)c2)CC1`, the melting point was 147 to 149 °C.

`CCOC(=O)C1=C(C)Nc2cc[nH]c(=O)c2C1c1ccccc1Cl` (stereo not given) gave a melting point of 204 to 205 °C. Compound `COc1ccc(C(=O)Nc2ccccc2)cc1NC(=S)Nc1ccccc1C` displayed a melting point of 172 to 174 °C. Compound `Cc1c(C)c2c(c(C)c1OC(=O)CCC(=O)O)C(c1ccc(C(C)C)cc1)C(C)(C)O2` (stereo not given) had a melting point of 141 to 142 °C.

As to `N#Cc1cccc2c1CCC2=O`, the melting point amounted to 122 °C.
